Measured values from patent US20020137929A1, “1 - (3-heterocyclylphenyl) isothiourea, -isourea, -guanidine and -amidine herbicidal agents” (Intellectual Property Department, BASF Aktiengesellschaft, priority 1998, published 2002).

Legend:
[1] = tested on: TRZAWR (Wheat, Winter, cv Riband); assay: Postemergence herbicidal evaluation; type: in vivo, Triticum aestivum; conditions: postemergence
Summary of the method: (§1)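 ~2-wk seedlings; postemergence spray, 40 psi; vehicle 1:1 acetone:water + 0.5% Tween 20; rate ≈0.0156–0.500 kg/ha; greenhouse hold; scored 4–5 wk after treatment, 0–9 scale vs control; repeat tests averaged.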

ORYSAT (Rice, Tebonnet) [2] = assay: Rice tolerance to post-transplant applications, flooded paddy conditions (Table IV); type: in vivo, Oryza sativa, (L.) Tebonnet
Summary of the method: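 Herbicidal effect is judged by eye on a 0–9 scale versus control, 3–4 weeks after dosing. Dosing is into flood water kept 1.5–3 cm over the soil, at about 0.0313–0.500 kg/ha in aqueous/acetone 50/50 v/v, on 3–5 cm weeds and 1.5–2.5-leaf rice seedlings.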

MOOVA (Monochoria) = assay: Postemergence weed control under flooded paddy conditions; type: in vivo, Monochoria vaginalis; conditions: postemergence weeds, 3-4 weeks after treatment
Summary of the method: (§2)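 Injury ratings (0–9 scale covering stand, vigor, malformation, size, chlorosis and overall appearance versus control) were made three to four weeks after treatment. Test material, about 0.0313 to 0.500 kg/ha a.i. in 50/50 v/v aqueous/acetone, was added to flood water 1.5 to 3 cm deep over 3 to 5 cm weeds and 1.5 to 2.5 leaf rice.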

AMBEL (Ragweed, Common) = assay: Postemergence herbicidal evaluation; type: in vivo, Ambrosia artemisifolia; conditions: postemergence
Summary of the method: as §1

[3] = tested on: CHEAL (Lambsquarters, Common); assay: Preemergence herbicidal evaluation; type: in vivo, Chenopodium album; conditions: rated 4-5 weeks after treatment
Summary of the method: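 Herbicidal effect scored visually, 0-9, at 4 to 5 weeks against a control; compound applied preemergence by aqueous acetone spray to seeded soil at about 0.0156 to 0.500 kg/ha.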

ORYSAT (Rice, Tebonnet) [4] = assay: Rice tolerance to post-transplant applications, flooded paddy conditions (Table III); type: in vivo, Oryza sativa, (L.) Tebonnet
Summary of the method: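 Injury scored 0-9 by eye against untreated control, judging stand, vigor, malformation, size and chlorosis, three to four weeks after treatment. Compound in 50/50 aqueous/acetone, about 0.0313 to 0.500 kg/ha, was applied to paddy water (1.5 to 3 cm depth) three days after transplanting paired ten-day-old Tebonnet rice seedlings.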

GALAP (Galium) = assay: Postemergence herbicidal evaluation; type: in vivo, Galium aparine; conditions: postemergence
Summary of the method: as §1

[5] = tested on: SAGPY (Arrowhead (Pygmaea)); assay: Postemergence weed control under flooded paddy conditions; type: in vivo, Sagittaria pygmaea; conditions: postemergence weeds, 3-4 weeks after treatment
Summary of the method: as §2

CCOC(=O)/C=C1/S/C(=N/c2cc(-n3c(=O)cc(C(F)(F)F)n(C)c3=O)c(F)cc2Cl)N(CC(=O)OCC)C1=O [Compound 14]
TRZAWR herbicidal rating ([1]; rate 0.0156 kg/ha): 5.5 | TRZAWR herbicidal rating ([1]; rate 0.0313 kg/ha): 6.0 | TRZAWR herbicidal rating ([1]; rate 0.0625 kg/ha): 7.5 | TRZAWR herbicidal rating ([1]; rate 0.1250 kg/ha): 9.0 | Herbicidal rating ORYSAT (rice tolerance) (ORYSAT (Rice, Tebonnet) [2]; rate 0.0313 kg/ha, flooded paddy, post-transplant rice, 3-4 weeks after treatment): 0.0 | Herbicidal rating ORYSAT (rice tolerance) (ORYSAT (Rice, Tebonnet) [2]; rate 0.0625 kg/ha, flooded paddy, post-transplant rice, 3-4 weeks after treatment): 0.3 | Herbicidal rating ORYSAT (rice tolerance) (ORYSAT (Rice, Tebonnet) [2]; rate 0.1250 kg/ha, flooded paddy, post-transplant rice, 3-4 weeks after treatment): 0.5 | Herbicidal rating ORYSAT (rice tolerance) (ORYSAT (Rice, Tebonnet) [2]; rate 0.2500 kg/ha, flooded paddy, post-transplant rice, 3-4 weeks after treatment): 0.0 | Herbicidal rating MOOVA (MOOVA (Monochoria); rate 0.0313 kg/ha): 6.8 | Herbicidal rating MOOVA (MOOVA (Monochoria); rate 0.0625 kg/ha): 6.8 | Herbicidal rating MOOVA (MOOVA (Monochoria); rate 0.1250 kg/ha): 6.8 | Herbicidal rating MOOVA (MOOVA (Monochoria); rate 0.2500 kg/ha): 4.5 | AMBEL herbicidal rating (AMBEL (Ragweed, Common); rate 0.0156 kg/ha): 9.0 | AMBEL herbicidal rating (AMBEL (Ragweed, Common); rate 0.0313 kg/ha): 9.0 | AMBEL herbicidal rating (AMBEL (Ragweed, Common); rate 0.0625 kg/ha): 9.0 | AMBEL herbicidal rating (AMBEL (Ragweed, Common); rate 0.1250 kg/ha): 9.0 | CHEAL preemergence herbicidal rating ([3]; rate 0.0313 kg/ha): 9.0 | CHEAL preemergence herbicidal rating ([3]; rate 0.0625 kg/ha): 9.0 | CHEAL preemergence herbicidal rating ([3]; rate 0.1250 kg/ha): 9.0 | CHEAL preemergence herbicidal rating ([3]; rate 0.2500 kg/ha): 9.0 | CHEAL preemergence herbicidal rating ([3]; rate 0.5000 kg/ha): 9.0 | Herbicidal rating ORYSAT (rice tolerance) (ORYSAT (Rice, Tebonnet) [4]; 0.0313 kg/ha, post-transplant rice, flooded paddy, rated 3-4 weeks after treatment): 0.0 | Herbicidal rating ORYSAT (rice tolerance) (ORYSAT (Rice, Tebonnet) [4]; 0.0625 kg/ha, post-transplant rice, flooded paddy, rated 3-4 weeks after treatment): 0.5 | Herbicidal rating ORYSAT (rice tolerance) (ORYSAT (Rice, Tebonnet) [4]; 0.1250 kg/ha, post-transplant rice, flooded paddy, rated 3-4 weeks after treatment): 1.0 | Herbicidal rating ORYSAT (rice tolerance) (ORYSAT (Rice, Tebonnet) [4]; 0.2500 kg/ha, post-transplant rice, flooded paddy, rated 3-4 weeks after treatment): 0.0 | GALAP herbicidal rating (GALAP (Galium); rate 0.0156 kg/ha): 2.0 | GALAP herbicidal rating (GALAP (Galium); rate 0.0313 kg/ha): 4.0 | GALAP herbicidal rating (GALAP (Galium); rate 0.0625 kg/ha): 5.0 | GALAP herbicidal rating (GALAP (Galium); rate 0.1250 kg/ha): 6.0 | Herbicidal rating SAGPY ([5]; rate 0.0313 kg/ha): 0.0 | Herbicidal rating SAGPY ([5]; rate 0.0625 kg/ha): 0.0 | Herbicidal rating SAGPY ([5]; rate 0.1250 kg/ha): 0.0 | Herbicidal rating SAGPY ([5]; rate 0.2500 kg/ha): 0.0

CCOC(=O)CN1C(=O)C(=Cc2ccccc2)SC1=Nc1cc(-n2c(=O)cc(C(F)(F)F)n(C)c2=O)c(F)cc1Cl [Compound 19, Ethyl 5-benzylidene-2-{{2-chloro-5-[3,6-dihydro-3-methyl-2,6-dioxo-4-(trifluoromethyl)-1(2H)-pyrimidinyl]-4-fluorophenyl}imino}-4-oxo-3-thiazolidineacetate]
TRZAWR herbicidal rating ([1]; rate 0.0158 kg/ha): 3.0 | TRZAWR herbicidal rating ([1]; rate 0.0315 kg/ha): 4.0 | TRZAWR herbicidal rating ([1]; rate 0.0630 kg/ha): 4.5 | Herbicidal rating ORYSAT (rice tolerance) (ORYSAT (Rice, Tebonnet) [2]; in vivo): 3.0 | Herbicidal rating MOOVA (MOOVA (Monochoria); rate 0.1160 kg/ha): 9.0 | Herbicidal rating MOOVA (MOOVA (Monochoria); rate 0.2310 kg/ha): 9.0 | Herbicidal rating MOOVA (MOOVA (Monochoria); rate 0.4630 kg/ha): 9.0 | AMBEL herbicidal rating (AMBEL (Ragweed, Common); rate 0.0158 kg/ha): 3.0 | AMBEL herbicidal rating (AMBEL (Ragweed, Common); rate 0.0315 kg/ha): 3.0 | AMBEL herbicidal rating (AMBEL (Ragweed, Common); rate 0.0630 kg/ha): 7.0 | CHEAL preemergence herbicidal rating ([3]; rate 0.1250 kg/ha): 9.0 | CHEAL preemergence herbicidal rating ([3]; rate 0.2500 kg/ha): 9.0 | Herbicidal rating ORYSAT (rice tolerance) (ORYSAT (Rice, Tebonnet) [4]; in vivo): 3.0 | GALAP herbicidal rating (GALAP (Galium); rate 0.0158 kg/ha): 2.0 | GALAP herbicidal rating (GALAP (Galium); rate 0.0315 kg/ha): 3.0 | GALAP herbicidal rating (GALAP (Galium); rate 0.0630 kg/ha): 3.0 | Herbicidal rating SAGPY ([5]; rate 0.1160 kg/ha): 0.0 | Herbicidal rating SAGPY ([5]; rate 0.2310 kg/ha): 3.0 | Herbicidal rating SAGPY ([5]; rate 0.4630 kg/ha): 3.0

CCOC(=O)CN1C(=O)C(Cc2ccccc2)SC1=Nc1cc(-n2c(=O)cc(C(F)(F)F)n(C)c2=O)c(F)cc1Cl (centres unmarked) [Compound 24, Ethyl 5-benzyl-2-{{2-chloro-5-[3,6-dihydro-3-methyl-2,6-dioxo-4-(trifluoromethyl)-1(2H)-pyrimidinyl]-4-fluorophenyl}imino}-4-oxo-3-thiazolidineacetate]
TRZAWR herbicidal rating ([1]; rate 0.0158 kg/ha): 3.5 | TRZAWR herbicidal rating ([1]; rate 0.0315 kg/ha): 3.5 | TRZAWR herbicidal rating ([1]; rate 0.0630 kg/ha): 3.5 | Herbicidal rating ORYSAT (rice tolerance) (ORYSAT (Rice, Tebonnet) [2]; in vivo): 0.0 | Herbicidal rating MOOVA (MOOVA (Monochoria); rate 0.0313 kg/ha): 0.0 | Herbicidal rating MOOVA (MOOVA (Monochoria); rate 0.0625 kg/ha): 9.0 | Herbicidal rating MOOVA (MOOVA (Monochoria); rate 0.1250 kg/ha): 9.0 | Herbicidal rating MOOVA (MOOVA (Monochoria); rate 0.2500 kg/ha): 9.0 | AMBEL herbicidal rating (AMBEL (Ragweed, Common); rate 0.0158 kg/ha): 2.0 | AMBEL herbicidal rating (AMBEL (Ragweed, Common); rate 0.0315 kg/ha): 3.0 | AMBEL herbicidal rating (AMBEL (Ragweed, Common); rate 0.0630 kg/ha): 9.0 | CHEAL preemergence herbicidal rating ([3]; rate 0.0625 kg/ha): 9.0 | CHEAL preemergence herbicidal rating ([3]; rate 0.1250 kg/ha): 9.0 | CHEAL preemergence herbicidal rating ([3]; rate 0.2500 kg/ha): 9.0 | Herbicidal rating ORYSAT (rice tolerance) (ORYSAT (Rice, Tebonnet) [4]; in vivo): 0.0 | GALAP herbicidal rating (GALAP (Galium); rate 0.0158 kg/ha): 1.0 | GALAP herbicidal rating (GALAP (Galium); rate 0.0315 kg/ha): 4.0 | GALAP herbicidal rating (GALAP (Galium); rate 0.0630 kg/ha): 6.0 | Herbicidal rating SAGPY ([5]; rate 0.0313 kg/ha): 0.0 | Herbicidal rating SAGPY ([5]; rate 0.0625 kg/ha): 0.0 | Herbicidal rating SAGPY ([5]; rate 0.1250 kg/ha): 0.0 | Herbicidal rating SAGPY ([5]; rate 0.2500 kg/ha): 0.0
